For 59 molecules, RP-LC retention time results are on record in the METLIN SMRT retention time set (Domingo-Almenara et al. 2019).

Molecules are shown by their SMILES.

This data set in a line: gradient 5% acetonitrile 3 min, to 50% in 2 min, to 85% in 15 min, held 3 min, 100 µL/min. The settings on record: column: Zorbax Extend-C18 2.1 x 50 mm; eluents: water / acetonitrile, 0.1% formic acid. The method, boiled down: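 Standards, all pure, were combined into mixtures of ~100 molecules and run at 100 μL/min on a Zorbax Extend-C18 column (2.1 × 50 mm, 1.8 μm) with water and acetonitrile, each containing 0.1% formic acid. A coupled quadrupole time-of-flight mass spectrometer operated in positive and negative ionization mode. Retention time values come from computationally picked adduct peaks, each inspected manually.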
Turning to `Cc1ccc(S(=O)(=O)N2CC(=O)N(c3ccccc3C)C(C)(C(=O)NC3CCCC3)C2)cc1` (centres undefined), the RP-LC retention time is 991 s.

Regarding `Cc1ccc(-c2noc(C3CC3)n2)cc1S(=O)(=O)N1CCC(C(=O)N2CCOCC2)CC1`, the RP-LC retention time came out at 697 s.

In the case of `COc1ccc(-c2noc(Cn3ccn(-c4cc(C)ccc4C)c(=O)c3=O)n2)cc1`, the RP-LC retention time came to 920 s.

Molecule `CCCn1cc(S(=O)(=O)CC(=O)Nc2ccc(C(=O)OCC)cc2)c2ccccc21` showed an RP-LC retention time of 890 s.

Turning to `Cc1noc(-c2cc(=O)n(CC(=O)Nc3cccc(Cl)c3)c3ccccc23)n1`, the RP-LC retention time turned out to be 927 s.

For the molecule `CC(C)(C)c1cccc(NC(=O)C2CCc3nc(N4CCOCC4)ncc3C2)c1` (centres undefined), the RP-LC retention time worked out at 945 s.

On to `Clc1cccc(-c2nnc(-c3nc(NCc4cccnc4)c4ccccc4n3)o2)c1`, for which the RP-LC retention time amounted to 705 s.

Molecule `Cc1nn(CCCC(=O)NCCCN2CCCCC2)c(=O)c2c1sc1ccccc12` gave an RP-LC retention time of 645 s.

Molecule `COc1ccc(NC(=O)N2CC3CCCN3c3ccccc32)c(OC)c1` (centres undefined) had an RP-LC retention time of 1090 s.

In turn, `O=C(Nc1cccc(-c2nnc3n2CCCC3)c1)c1cc(C2CC2)[nH]n1` came in with an RP-LC retention time of 590 s.

With `O=C(Cn1nc(N2CCOCC2)c2ccccc2c1=O)Nc1ccc2c(c1)OCO2`, the RP-LC retention time is 733 s.

`CCc1nncn1C1CCN(S(=O)(=O)c2cc(OC)ccc2OC)CC1` registered an RP-LC retention time of 664 s.

`Cc1ccc(C)c(-c2cc3c(=O)n(Cc4nc(-c5ccc6c(c5)OCO6)no4)ncn3n2)c1` yielded an RP-LC retention time of 683 s.

As to `Fc1cccc(-n2cc(-c3noc(-c4ccccc4)n3)nn2)c1`, the RP-LC retention time amounted to 1070 s.

Molecule `O=C(Nc1cnc(N2CCOCC2)nc1)c1cccc(Br)c1` had an RP-LC retention time of 828 s.

`CCOC(=O)c1cccc(Nc2nc(C(=O)OCC)nc3ccccc23)c1` had an RP-LC retention time of 870 s.

`CN1CCCN(c2ccc(NC(=O)c3ccc(Br)cc3)c(C(=O)O)c2)CC1` yielded an RP-LC retention time of 670 s.

In the case of `Cc1ccc(NC(=O)Cc2c(C(=O)O)c(C)cn2C)nc1`, the RP-LC retention time came to 642 s.

Take `O=C(NCc1ccc(C(F)(F)F)cc1)c1c(O)c2cccnc2[nH]c1=O`: the RP-LC retention time was determined as 1010 s.

For the molecule `CCc1cc(=O)n(CC(=O)NCc2ccc(Cl)cc2)c(N)n1`, the RP-LC retention time is 627 s.

On to `CC(=O)N(Cc1nn(C)c2c1CN(S(=O)(=O)c1ccc(Cl)cc1)CC2)c1ccccc1`, for which the RP-LC retention time is 844 s.

As for `O=C(CCCc1ccccc1)N1CCN(c2ccc(-n3cccn3)nn2)CC1`, the RP-LC retention time was determined as 758 s.

With `CCOC(=O)c1[nH]c(C)c(CCC(=O)N2CCC(C(=O)NCCN3CCCCC3)CC2)c1C`, the RP-LC retention time turned out to be 590 s.

Consider `CCn1cnc(S(=O)(=O)N2CCC(C(=O)NCc3ccc(F)cc3)CC2)c1`, for which the RP-LC retention time turned out to be 700 s.

Consider `COc1ccc2[nH]c(=O)c(CCC(=O)NCCCOC(C)C)cc2c1`, for which the RP-LC retention time was determined as 649 s.

Turning to `COc1ccc(-c2nnc(Cc3nc(-c4ccccc4C)no3)o2)cc1`, the RP-LC retention time came out at 1010 s.

Take `CCc1ccc2c(c1)-c1ccccc1S(=O)(=O)N2CC(=O)N1CCN(C)CC1`: the RP-LC retention time is 662 s.

For `COc1ccc(CNC(=O)Cn2nc(C(=O)N3CCCC3)c3ccccc32)cc1`, the RP-LC retention time turned out to be 773 s.

In the case of `O=C1[C@H]2CN(Cc3cc(Cl)ccc3F)C[C@H]2C(=O)N1CCN1CCc2ccccc2C1`, the RP-LC retention time came out at 684 s.

Take `CCn1c(CCNC(=O)c2ccccc2)nc2cccnc21`: the RP-LC retention time stood at 598 s.

`COC(=O)c1ccc2c(=O)n(-c3cc(F)cc(F)c3)c(N3CCN(c4ccccn4)CC3)nc2c1` yielded an RP-LC retention time of 753 s.

`Cc1ccc(CNC(=O)c2nnc(-c3ccc(S(=O)(=O)N4CCCC4)cc3)o2)o1` had an RP-LC retention time of 852 s.

`COc1ccc(-c2c(C)noc2NC(C)=O)cc1S(=O)(=O)NCc1ccc(C)cc1`: the RP-LC retention time worked out at 784 s.

Molecule `COc1ccc(-c2noc(-c3nc(C)no3)n2)cc1` yielded an RP-LC retention time of 920 s.

`CN1Cc2c(N)cccc2C(c2ccccc2)C1` (centres undefined) yielded an RP-LC retention time of 678 s.

Regarding `CCn1c(=O)c(N2CCN(C(=O)Nc3ccc(Br)cc3)CC2)nc2cccnc21`, the RP-LC retention time stood at 1030 s.

As to `CSc1ncc2[nH]c(C(O)c3ccccc3)nc2n1` (centres undefined), the RP-LC retention time is 692 s.

In turn, `O=C(Nc1ccc(N2CCOCC2)cc1)C1CCCN(c2nnc3ccccn23)C1` (centres undefined) displayed an RP-LC retention time of 600 s.

As to `CC1CCC2(CC1)NC(=O)N(CC(=O)Nc1cccc(F)c1)C2=O` (centres undefined), the RP-LC retention time stood at 816 s.

As to `CN(Cc1ccsc1)C(=O)Nc1ccc(F)cc1`, the RP-LC retention time came out at 839 s.

As to `CN1CCc2nnc(C3CCN(C(=O)Nc4cc(F)cc(F)c4)C3)n2CC1` (centres undefined), the RP-LC retention time is 593 s.

`COC(=O)c1cc2c(=O)n(-c3cc(Cl)cc(Cl)c3)ccc2nc1C`: the RP-LC retention time turned out to be 1010 s.

`Cc1noc(C)c1-c1ccc(S(=O)(=O)NCCc2ccc(S(N)(=O)=O)cc2)cc1` came in with an RP-LC retention time of 740 s.

`Cc1nnc(SCC(=O)Nc2nc(-c3ccccc3)ns2)s1` gave an RP-LC retention time of 852 s.

Consider `Cc1ccc(-c2noc(-c3cccn4c(=O)n(Cc5ccc6c(c5)OCO6)nc34)n2)cc1`, for which the RP-LC retention time was determined as 1010 s.

On to `Cc1ccc(Cl)cc1NC(=O)C1CCN(S(=O)(=O)c2cc(C(=O)N(C)C)cs2)CC1`, for which the RP-LC retention time came out at 846 s.

In turn, `CC1CCN(c2cc3c(cc2NC(=O)c2ccco2)n(C)c(=O)c(=O)n3C)CC1` showed an RP-LC retention time of 632 s.

Take `CCOc1ccc(N2CC(c3nc4ccccc4n3CCN3CCOCC3)CC2=O)cc1` (centres undefined): the RP-LC retention time worked out at 618 s.

`Cc1ccc(-c2noc(C3CCCN3C(=O)c3ccc(CS(=O)(=O)c4ccccc4)cc3)n2)cc1` (centres undefined) had an RP-LC retention time of 1010 s.

`Cc1sc(NC(=O)CCC2CCCCC2)nc1-c1ccc2c(c1)NC(=O)CO2` registered an RP-LC retention time of 1060 s.

On to `Cc1cc(C)cc(-c2nc(-c3ccc4c(c3)oc(=O)n4C)no2)c1`, for which the RP-LC retention time came out at 1060 s.

In the case of `Cc1ccc(CN2CC(=O)N(c3cccc(Cl)c3)[C@@H]3CS(=O)(=O)C[C@@H]32)cc1`, the RP-LC retention time was determined as 917 s.

As to `Cc1ncn(CC(=O)Nc2ccc(F)cc2F)c(=O)c1C`, the RP-LC retention time was found to be 642 s.

Molecule `COc1ccc(C2(C(=O)N[C@@H]3CN(S(C)(=O)=O)C[C@H]3CN(C)C)CC2)cc1` had an RP-LC retention time of 635 s.

Molecule `COc1ccc(-c2noc(C3(NC(=O)c4ccco4)CCCCC3)n2)cc1` returned an RP-LC retention time of 1000 s.

In the case of `CC(=O)c1ccc(N2C(=O)Cn3cccc3C2C(=O)NC2CCC(C)CC2)cc1` (centres undefined), the RP-LC retention time stood at 869 s.

`CN1C2CCC1CC(OC(c1ccccc1)c1ccccc1N)C2` (centres undefined) displayed an RP-LC retention time of 752 s.

Molecule `Cc1ccc(S(=O)(=O)Nc2cccc(-c3nc4ncccn4c3C)c2)cc1` registered an RP-LC retention time of 670 s.

Take `COc1cccc(CC(=O)N2CCC3(CC2)NC(=O)c2ccc(Cl)cc2N3)c1`: the RP-LC retention time was determined as 790 s.
